Experimental data published in patent US4067997A, “Synergistic microbecidal composition and method” (priority 1976, dated 1978).
In brackets after ≈: the same amount, converted by molar mass. Structures can show the parent of a compound that is named as a salt. Where two headings read alike, the source gives them in different places.

Columns and labels:
Candida albicans = assay: MIC on mass basis (Example V procedure); type: cell-based
Procedure: (§1) The essential procedure of Example I was followed with a series of phenolic compounds, with the exception that the test method was conducted on a mass (μg/ml) basis rather than a molecular (mol/ml) basis of the foregoing tests, since the long established phenol-coeffecient test is on a mass rather than molecular basis. Additionally, a different but closely related group of organisms were used in this test, in order to give a complete representative span on gram-negative, gram-positive and fungus organisms. Additionally, the phenolic derivatives chosen for test purposes include a number of derivatives which are presently accepted by the FDA as food-grade phenolic microbicides.
(§2) The same procedure of Example V was repeated but with combinations of mono-laurin (GML).
(§3) The procedure of Example V was repeated with combinations of glycerol mono-laurin (GML) and ethylenediamine tetraacetic acid (EDTA) as the calcium salt and in combination with BHA.

Streptococcus agalactiae = assay: MIC on mass basis (Example V procedure); type: cell-based
Procedure: as §1, §2, §3

Pseudomonas aeruginosa = assay: MIC on mass basis (Example V procedure); type: cell-based
Procedure: as §1, §2, §3

Escherichia coli = assay: MIC on mass basis (Example V procedure); type: cell-based
Procedure: as §1, §2, §3

Staphylococcus aureus = assay: MIC on mass basis (Example V procedure); type: cell-based
Procedure: as §1, §2, §3

Nocardia asteroides [1] = assay: MIC on mass basis (Example V procedure); type: cell-based
Procedure: as §1, §2, §3

Saccharomyces cerevisiae = assay: MIC on mass basis (Example V procedure); type: cell-based
Procedure: as §1, §2, §3

Streptococcus mutans = assay: MIC on mass basis (Example V procedure); type: cell-based, Streptococcus mutans (ATCC 10441)
Procedure: as §1, §2, §3

Pneumococci = assay: MIC, broth dilution (Examples I/II); type: cell-based, pneumococcus (63001); settings: Table 8, Pneumococci
Procedure: (§4) In order to establish comparative bactericidal and fungicidal results with homologous fatty acids, a series of experiments was performed with thirty straight-chain fatty acids and derivatives thereof. Eight different gram-negative and twelve different gram-positive organisms, representing a very broad spectrum of organisms, were used in these experiments including the fungus Candida (a yeast). Additionally, fatty acids were chosen to show the effects of saturation versus unsaturation, in the fatty acid claim. Standard solutions of the fatty acids and their derivatives were prepared by first dissolving the weighed compounds in 1 to 2 ml of 95% ethanol and immediately pouring this solution into 200 ml of Tripticase Soy Broth. These lipid compounds which are insoluble in water and broth precipitated into very small crystals or droplets. The tubes containing the suspension were warmed to approximately 70° C and were then placed in an ultrasonic tank for further solubilization of the lipid derivatives.
(§5) Standard solutions (or suspensions) at 1,000 μg/ml were twofold serially diluted with additional broth to a concentration of 125 μg/ml. A 4-ml amount of each dilution was then quickly, and with constant agitation, dispensed into appropriately labeled screw-capped glass tubes (16 by 125 mm). The tubes were sterilized with steam at 15 psi for 15 minutes. After sterilization, all tubes were cooled and incubated overnight at 35° C to insure sterility.
(§6) All compounds were compared on a molar (micromoles/milliliter) rather than on a mass basis. In the following lists of organisms used, those followed by a parenthetical number are registered with the American Type Culture Collection (ATCC); the remainder were isolates from Providence Hospital or Northland Laboratory.
(§7) One drop (0.04 ± 0.01 ml) of an 18-hr broth culture containing 10^7 and 10^9 organisms/ml was added to each dilution of the test compound, as well as to a tube of plain broth which served as the positive control. After inoculation, the contents of each tube were well mixed, and the tubes were incubated at 35° C in a 5% carbon dioxide + […] atmosphere.
(§8) The MIC is defined as the lowest concentration of compound at which no […] evidence of growth was observed when turbidity of the inoculated broth dilutions was compared with control tubes. […] Only a one-tube difference between the bactericidal and bacteriostatic concentrations was normally observed.
(§9) Standard solutions (1000 μg/ml) of three fatty acids and polyglycerol esters thereof were prepared as described in Example I. Also sucrose esters were prepared by transferring the weighed compounds (0.2 gm. dissolved in 1 ml absolute methanol) into 200 ml of sterile Trypticase Soy Broth (TSB). These standard solutions (1000 μg/ml) were twofold serially diluted with additional sterile broth to a concentration of 125 μg/ml. A 3.8 aliquot of each dilution was asceptically delivered into sterile screw-capped culture tubes. All tubes were incubated overnight at 36° C to insure sterility. The microorganisms used in this example were the same as those used in Example I.
(§10) The inoculum, 0.05 ml of an 13-24 hour TSB culture (approximately 10^9 organisms/ml) was asceptically delivered into all dilutions of the compounds, mixed well, and incubated at 36° C. A tube of inoculated broth without the compound served as a positive control and an uninoculated set of dilutions incubated along with the test dilutions, served as a negative control.
(§11) In those cases in which the test compound itself caused turbidity, an aliquot (0.015 ml) of the mixed broth was inoculated onto an agar plate and incubated at 36° C for examination, as described in Example I. The control procedure of Example I was also repeated. The lauric, capric, and oleic acids were used as internal controls and for comparison to Example I. The minimal inhibitory concentrations (μmole/ml) for the compounds studied are given in Tables 7 and 8.

Micrococci = assay: MIC, broth dilution (Examples I/II); type: cell-based, Micrococcus sp.; settings: Table 8, Micrococci
Procedure: as §4, §5, §6, §7, §8, §9, §10, §11

Nocardia asteroides [2] = assay: MIC, broth dilution (Examples I/II); type: cell-based, Nocardia asteroids (3308); settings: Table 8, Nocardia asteroides; for MIC (second value, in parentheses): parentheses not explained
Procedure: as §4, §5, §6, §7, §8, §9, §10, §11

Corynebacteria = assay: MIC, broth dilution (Examples I/II); type: cell-based, Corynebacterium sp. (10700); settings: Table 8, Corynebacteria; for MIC (second value, in parentheses): parentheses not explained
Procedure: as §4, §5, §6, §7, §8, §9, §10, §11

S. epidermidis = assay: MIC, broth dilution (Examples I/II); type: cell-based; settings: Table 8, Staph. epider.; > = no inhibition, max. tested
Procedure: as §4, §5, §6, §7, §8, §9, §10, §11

Streptococcus Group A = assay: MIC, broth dilution (Examples I/II); type: cell-based, beta-hemolytic streptococci Group A; settings: Table 8, Strep. Grp. A; for MIC (second value, in parentheses): parentheses not explained
Procedure: as §4, §5, §6, §7, §8, §9, §10, §11

Sarcina = assay: MIC, broth dilution (Examples I/II); type: cell-based, Sarcina lutea (9431); settings: Table 8, Sarcina; > = no inhibition, max. tested
Procedure: as §4, §5, §6, §7, §8, §9, §10, §11

Corynebacterium sp. = assay: MIC on mass basis (Example V procedure); type: cell-based
Procedure: as §1

Compound O=C(O)CN(CCN(CC(=O)O)CC(=O)O)CC(=O)O [EDTA (N2 Ca salt), ethylenediamine tetraacetic acid] has an MIC (Candida albicans; Candida albicans) of over 1000 µg/mL, an MIC (Streptococcus agalactiae; Streptococcus agalactiae) of over 1000 µg/mL and an MIC (Pseudomonas aeruginosa; Pseudomonas aeruginosa) of over 1000 µg/mL. The MIC (Escherichia coli; Escherichia coli, Table 14, Escherichia coli) was under 1000 µg/mL, the MIC (Staphylococcus aureus; Staphylococcus aureus) was over 1000 µg/mL and the MIC (Nocardia asteroides [1]; Nocardia asteroides) was 1000 µg/mL. The MIC (Saccharomyces cerevisiae; Saccharomyces cerevisiae, Table 14, Saccharomyces cerevisiae, read-out: MIC) was over 1000 µg/mL and the MIC (Streptococcus mutans; Streptococcus mutans) was 500 µg/mL.
Sucrose elaidate was tested, and the MIC (Pneumococci) was 200 µM, the MIC (Micrococci) was 820 µM and the MIC (Nocardia asteroides [2]) was 200 µM. For the same compound, the MIC (Corynebacteria) was 1640 µM, the MIC (S. epidermidis) was over 1640 µM and the MIC (Streptococcus Group A) was 200 µM. It also gave an MIC (Sarcina) of over 1640 µM.
CC(C)(C)c1ccc(C(C)(C)C)c(O)c1 [2,5-di-tert-butylphenol] was tested, and the MIC (Corynebacterium sp.; Corynebacterium) was 7.8 µg/mL (≈ 37.8 µM), the MIC (Candida albicans; Candida albicans) was over 1000 µg/mL and the MIC (Streptococcus agalactiae; Streptococcus agalactiae) was 15.6 µg/mL. For the same compound, the MIC (Pseudomonas aeruginosa; Pseudomonas aeruginosa) was over 1000 µg/mL, the MIC (Escherichia coli; Escherichia coli) was over 1000 µg/mL and the MIC (Staphylococcus aureus; Staphylococcus aureus) was 62.5 µg/mL. For the same compound, the MIC (Nocardia asteroides [1]; Nocardia asteroides) was 7.8 µg/mL, the MIC (Saccharomyces cerevisiae; Saccharomyces cerevisiae) was 62.5 µg/mL and the MIC (Streptococcus mutans; Streptococcus mutans) was 7.8 µg/mL.
CC(C)(C)c1cc(C(C)(C)C)c(O)cc1O [4,6-di-tert-butylresorcinol] gave an MIC (Corynebacterium sp.; Table 11, Corynebacterium sp., read-out: MIC) of 7.8 µg/mL (≈ 35.1 µM), an MIC (Candida albicans; Candida albicans, Table 11, Candida albicans, read-out: MIC) of 62.5 µg/mL and an MIC (Streptococcus agalactiae; Streptococcus agalactiae, Table 11, Strepococcus agalactiae, read-out: MIC) of 15.6 µg/mL. It also gave an MIC (Pseudomonas aeruginosa; Pseudomonas aeruginosa, Table 11, Pseudomonas aeruginosa, read-out: MIC) of over 1000 µg/mL, an MIC (Escherichia coli; Escherichia coli, Table 11, Escherichia coli, read-out: MIC) of over 1000 µg/mL and an MIC (Staphylococcus aureus; Staphylococcus aureus, Table 11, Staphylococcus aureus, read-out: MIC) of 15.6 µg/mL. For the same compound, the MIC (Nocardia asteroides [1]; Table 11, Nocardia asteroides, read-out: MIC) was 7.8 µg/mL, the MIC (Saccharomyces cerevisiae; Saccharomyces cerevisiae) was 15.6 µg/mL and the MIC (Streptococcus mutans; Streptococcus mutans, Table 11, Strepococcus mutans, read-out: MIC) was 7.8 µg/mL.
For Sucrose laurate, the MIC (Pneumococci) was 120 µM, the MIC (Micrococci) was 1900 µM and the MIC (Nocardia asteroides [2]) was 470 µM. The “MIC (second value, in parentheses)” value (Nocardia asteroides [2]) was 1900 µM, the MIC (Corynebacteria) was 470 µM and the “MIC (second value, in parentheses)” value (Corynebacteria) was 230 µM. The MIC (S. epidermidis) was over 1900 µM, the MIC (Streptococcus Group A) was 30 µM and the “MIC (second value, in parentheses)” value (Streptococcus Group A) was 120 µM. The MIC (Sarcina) was over 1900 µM.
Compound Sucrose linoleate has an MIC (Pneumococci) of 50 µM, an MIC (Micrococci) of 820 µM and an MIC (Nocardia asteroides [2]) of 410 µM. The “MIC (second value, in parentheses)” value (Nocardia asteroides [2]) was 1660 µM, the MIC (Corynebacteria) was over 1660 µM and the “MIC (second value, in parentheses)” value (Corynebacteria) was 1660 µM. For the same compound, the MIC (S. epidermidis) was over 1660 µM, the MIC (Streptococcus Group A) was 410 µM and the “MIC (second value, in parentheses)” value (Streptococcus Group A) was 820 µM. The MIC (Sarcina) was over 1660 µM.
3(2)-tert-butyl-4-methoxyphenol [BHA] was tested, and the MIC (Corynebacterium sp.; Table 11, Corynebacterium sp.) was 62.50 µg/mL, the MIC (Candida albicans; Table 11, Candida albicans) was 125 µg/mL and the MIC (Candida albicans; Table 13, Candida albicans) was 125 µg/mL. It also gave an MIC (Candida albicans; Table 14, Candida albicans) of 125 µg/mL, an MIC (Streptococcus agalactiae; Table 11, Strepococcus agalactiae) of 125 µg/mL and an MIC (Streptococcus agalactiae; Table 13, Streptococcus agalactiae) of 62.50 µg/mL. The MIC (Streptococcus agalactiae; Table 14, Streptococcus agalactiae) was 62.50 µg/mL, the MIC (Pseudomonas aeruginosa; Table 11, Pseudomonas aeruginosa) was > 1,000 μg/ml and the MIC (Pseudomonas aeruginosa; Table 13, Pseudomonas aeruginosa) was > 1,000 μg/ml. For the same compound, the MIC (Pseudomonas aeruginosa; Table 14, Pseudomonas aeruginosa) was > 1,000 μg/ml, the MIC (Escherichia coli; Table 11, Escherichia coli) was > 1,000 μg/ml and the MIC (Escherichia coli; Table 13, Escherichia coli) was 500 µg/mL. The MIC (Escherichia coli; Table 14, Escherichia coli) was 500 µg/mL, the MIC (Staphylococcus aureus; Table 11, Staphylococcus aureus) was 125 µg/mL and the MIC (Staphylococcus aureus; Table 13, Staphylococcus aureus) was 125 µg/mL. It also gave an MIC (Staphylococcus aureus; Table 14, Staphylococcus aureus) of 125 µg/mL, an MIC (Nocardia asteroides [1]; Table 11, Nocardia asteroides) of 125 µg/mL and an MIC (Nocardia asteroides [1]; Table 13, Nocardia asteroides) of 62.50 µg/mL. It also gave an MIC (Nocardia asteroides [1]; Table 14, Nocardia asteroides) of 62.50 µg/mL, an MIC (Saccharomyces cerevisiae; Table 13, Saccharomyces cerevisiae) of 125 µg/mL and an MIC (Saccharomyces cerevisiae; Table 14, Saccharomyces cerevisiae) of 125 µg/mL. It also gave an MIC (Streptococcus mutans; Table 11, Strepococcus mutans) of 62.50 µg/mL, an MIC (Streptococcus mutans; Table 13, Streptococcus mutans) of 62.50 µg/mL and an MIC (Streptococcus mutans; Table 14, Streptococcus mutans) of 62.50 µg/mL.
